Measurements reported in patent publication US11591331B2, “PARP1 inhibitors and uses thereof” (Xinthera, Inc., priority 2021, dated 2023).
pEC50: −log10 of the molar value.

Experiments:
[1] = In vitro human hepatic clearance in cellular relay format; type: in vitro ADME; conditions: cryopreserved hepatocytes in suspension (relay format); human hepatocytes relay, 5 incubations of 4 hrs, 0.5E+06 viable cells/mL
Procedure: (§1) Example C: In Vitro Human Hepatic Clearance in Cellular Relay Format
(§2) Working stocks of individual test articles were prepared at concentrations of 100 μM by diluting 10 mM stocks prepared in DMSO 100-fold (v:v) into ACN/1H2O (50/50, v:v). Human cryopreserved hepatocytes were thawed in a 37° C. water bath in <2 min., suspended in thawing media, and then centrifuged at 100×g for 10 min. Thawing media was aspirated, and pelleted hepatocytes were resuspended into incubation media at 1.5E+06 cells/mL. Cell viability was determined using an Acridine Orange/Propidium Iodine stain, and hepatocytes were further diluted with incubation media to 0.5E+06 viable cells/mL. Hepatocyte aliquots of 495 μL were added to wells of a 24-well plate, and test article incubations were initiated by the addition of 5 μL of 100 μM working stocks. Plates were incubated at 37° C. in a 5% CO2 atmosphere at 95% relative humidity on an orbital shaker at 300 rpm. Incubations were performed in duplicate. At time=0 and 4 hrs., aliquots of each incubation were extracted with 6 volumes ACN containing internal standards. After 4 hrs., hepatocytes were removed from the incubations via centrifugation, and supernatants were stored frozen until the following day at which point incubations were reinitiated by diluting thawed supernatants with freshly thawed hepatocytes in incubation media, again to a final concentration of 0.5E+06 viable cells/mL. These steps were repeated for a total of 5 incubations of 4 hrs. each covering 20 total hours of incubation. Incubational losses due to cellular uptake, nonspecific binding, and dilution at each relay step were corrected for. Supernatants of all incubation aliquots were diluted into ultrapure water prior to analysis via LC/MS/MS. In vitro intrinsic clearances (CLint) in μL/min/IE+06 cells were determined for each incubation from calculated in vitro half-lives determined using a standard log-linear regression approach. In vitro CLint values were scaled up using the following physiological scaling factors: 99E+06 cells/g human liver and 25.7 g human liver/kg body weight. Scaled intrinsic clearance values were finally introduced to the well-stirred liver model for the purpose of calculating predicted human hepatic clearance (CLhep,pred) in mL/min/kg assuming a human liver blood flow of 20.7 mL/min/kg and making no corrections for test article binding to red blood cells, plasma proteins, or components of the incubation system. S-Warfarin, Disopyramide and Diazepam were used as assay controls.

[2] = system: Human cryopreserved hepatocytes; assay: as above; type: in vitro ADME; conditions: predicted human hepatic clearance, well-stirred liver model, scaled from in vitro CLint
Procedure: as §1, §2

[3] = system: MDA-MB-436 (mutated BRCA1) cell lines; assay: Cell growth inhibition assay (CellTiter-Glo cell viability, 7 days); type: cell-based; conditions: Homo sapiens, 168 h, MDA-MB-436 cells
[4] = system: DLD-1 BRCA2(−/−); assay: as above; type: cell-based; conditions: Homo sapiens, 168 h, DLD-1 BRCA2(-/-) cells
[5] = system: DLD-1 parental; assay: as above; type: cell-based; conditions: Homo sapiens, 168 h, DLD-1 parental cells
Excerpt: Example A: Cell Growth Inhibition Assay
The objective of this study is to evaluate the effect of invention compounds on cell proliferation through the cell viability assay in DLD-1 BRCA2(−/−) and parental isogenic pair and MDA-MB-436 (mutated BRCA1) cell lines. The CellTiter-Glo (CTG) based cell viability assay is designed to determine the number of viable cells in the culture because of compound effect, by quantifying ATP, which indicates the presence of metabolically active cells.
DLD-1 BRCA2(−/−) and parental isogenic pair were cultured in RPMI 1640 supplemented with 10% fetal bovine serum (FBS), and MDA-MB-436 cells were cultured in DMEM supplemented with 10% FBS. Both are culture at 37° C. with 5% CO2. Invention compounds were distributed to the 384 well plate (Corning, 3764) using Echo acoustic liquid handler to form a 1:3 serially diluted final concentration with top dose of 10 or 30 μM. The cells were seeded into the plate in the density of 50 cells/well (DLD-1 parental), 200 cells/well (DLD-1 BRCA2−/−), or 500 cells/well (MDA-MB-436). After a short spun, the cells were cultured in a well moisturized incubator at 37° C. with 5% CO2 for 7 days without disturbance. The cell viability was measured by CellTiter Glo 2.0 assay kit (Promega, G9243), and growth inhibition rate was calculated and plotted against final compound concentration, and the data were fitted in Xfit to generate IC50.

For CCc1cc2ncc(CN3CCN(c4ccc(C(=O)N[C@H](C)COC)nc4)CC3)cc2[nH]c1=O [Example 56], the half-life at 1 µM [1] was > 3730 min, the “Clhep,pred” value [2] was <0.9 mL/min/kg and the pEC50 [3] was 8.66. It also gave a pEC50 [4] of 8.15.
For CCc1cc2ncc(CN3CCN(c4ccc(C(=O)NC)nc4)[C@H](C)C3)cc2[nH]c1=O [Example 2, 5-[(2R)-4-[(7-ethyl-6-oxo-5H-1,5-naphthyridin-3-yl)methyl]-2-methylpiperazin-1-yl]-N-methylpyridine-2-carboxamide], the half-life at 1 µM [1] was 1890 min, the “Clhep,pred” value [2] was 1.71 mL/min/kg and the pEC50 [5] was < 4.52. It also gave a pEC50 [3] of 8.40 and a pEC50 [4] of 8.32.
With O=C(NC1CC1)c1ccc(N2CCN(Cc3cnc4cc(C5CC5)c(=O)[nH]c4c3)CC2)cn1 [Example 24, N-cyclopropyl-5-{4-[(7-cyclopropyl-6-oxo-5H-1,5-naphthyridin-3-yl)methyl]piperazin-1-yl}pyridine-2-carboxamide] the half-life at 1 µM [1] was > 3730 min, the “Clhep,pred” value [2] was <0.9 mL/min/kg and the pEC50 [5] was < 4.52. It also gave a pEC50 [3] of 8.85 and a pEC50 [4] of 8.60.
In the case of CCc1cc2ncc(CN3CCN(c4cnc(C(=O)NC)c(F)c4)CC3)cc2[nH]c1=O [Example 5, 5-(4-((7-ethyl-6-oxo-5,6-dihydro-1,5-naphthyridin-3-yl)methyl)piperazin-1-yl)-3-fluoro-N-methylpicolinamide], the half-life at 1 µM [1] was 6530 min, the “Clhep,pred” value [2] was 0.53 mL/min/kg and the pEC50 [5] was 3.33. For the same molecule, the pEC50 [3] was 8.85 and the pEC50 [4] was 8.60.
With CNC(=O)c1ccc(N2CCN(Cc3cnc4cc(C5CC5)c(=O)[nH]c4c3)CC2)cn1 [Example 15, 5-{4-[(7-cyclopropyl-6-oxo-5H-1,5-naphthyridin-3-yl)methyl]piperazin-1-yl}-N-methylpyridine-2-carboxamide] the half-life at 1 µM [1] was > 3730 min, the “Clhep,pred” value [2] was <0.9 mL/min/kg and the pEC50 [5] was < 4.52. The pEC50 [3] was 8.89 and the pEC50 [4] was 8.74.
In the case of CCc1cc2ncc(CN3CCN(c4ccc(C(=O)NC)nc4)CC3)cc2[nH]c1=O [AZD5305], the half-life at 1 µM [1] was 1910 min and the “Clhep,pred” value [2] was 1.69 mL/min/kg.
With CCc1cc2ncc(CN3CCN(c4ccc(C(=O)NC)nc4C#N)CC3)cc2[nH]c1=O [Example 1, 6-cyano-5-{4-[(7-ethyl-6-oxo-5H-1,5-naphthyridin-3-yl)methyl]piperazin-1-yl}-N-methylpyridine-2-carboxamide] the half-life at 1 µM [1] was 1950 min, the “Clhep,pred” value [2] was 1.67 mL/min/kg and the pEC50 [5] was 2.30. The pEC50 [3] was 9.20 and the pEC50 [4] was 8.85.
In the case of CCc1cc2ncc(CN3CCC(c4ccc(C(=O)NC)nc4)CC3)cc2[nH]c1=O [Example 16, 5-(1-((7-ethyl-6-oxo-5,6-dihydro-1,5-naphthyridin-3-yl)methyl)piperidin-4-yl)-N-methylpicolinamide], the pEC50 [5] was < 4.52, the pEC50 [3] was 8.89 and the pEC50 [4] was 8.38.
Work on CCc1cc2ncc(CN3CCN(c4ccc(C(=O)NC5CC5)nc4)CC3)cc2[nH]c1=O [Example 12, N-cyclopropyl-5-{4-[(7-ethyl-6-oxo-5H-1,5-naphthyridin-3-yl)methyl]piperazin-1-yl}pyridine-2-carboxamide] yielded a pEC50 [5] of 4.29, a pEC50 [3] of 9.21 and a pEC50 [4] of 8.96.
In the case of CCc1cc2ncc(CN3CCN(c4ccc(C(=O)NC)nc4)[C@@H]4C[C@@H]43)cc2[nH]c1=O (stereo in doubt) [Example 3A, rel-5-[(1R,6S)-5-[(7-ethyl-6-oxo-5H-1,5-naphthyridin-3-yl)methyl]-2,5-diazabicyclo[4.1.0]heptan-2-yl]-N-methylpyridine-2-carboxamide], the pEC50 [5] was < 4.52, the pEC50 [3] was 7.62 and the pEC50 [4] was 6.64.
With CCc1cc2ncc(CN3CCN(c4ccc(-n5cnnc5)cc4)CC3)cc2[nH]c1=O [Example 32] the pEC50 [5] was < 4.52, the pEC50 [3] was 7.82 and the pEC50 [4] was 7.11.
CNC(=O)c1ccc(N2CCN(Cc3ccc4cc(OC(F)F)c(=O)[nH]c4c3)CC2)cn1 [Example 31] gave a pEC50 [5] of 4.25, a pEC50 [3] of 7.82 and a pEC50 [4] of 7.32.
For CNC(=O)c1ccc(N2CCN(Cc3ccc4c(c3)[nH]c(=O)c3ccoc34)CC2)cn1 [Example 11, N-methyl-5-[4-({4-oxo-5H-furo[3,2-c]quinolin-7-yl}methyl)piperazin-1-yl]pyridine-2-carboxamide], the pEC50 [5] was 3.36, the pEC50 [3] was 8.96 and the pEC50 [4] was 8.55.
For CCc1cc2ncc(CN3CC(Oc4ccc(C(=O)NC)nc4)C3)cc2[nH]c1=O [Example 25, 5-({1-[(7-ethyl-6-oxo-5H-1,5-naphthyridin-3-yl)methyl]azetidin-3-yl}oxy)-N-methylpyridine-2-carboxamide], the pEC50 [5] was < 4.52, the pEC50 [3] was 8.38 and the pEC50 [4] was 8.06.
In the case of CCc1cc2ncc(CN3CCN(c4ccc(C(=O)NC)nc4)[C@H]4C[C@H]43)cc2[nH]c1=O (stereo in doubt) [Example 28], the pEC50 [5] was 4.48, the pEC50 [3] was 9.10 and the pEC50 [4] was 8.49.
With CNC(=O)c1ccc(N2CCN(Cc3cnc4cc(C)c(=O)[nH]c4c3)CC2)cn1 [Example 33] the pEC50 [5] was < 4.52, the pEC50 [3] was 8.51 and the pEC50 [4] was 8.19.
